Assay results published in PMC11770821, “Pharmacokinetics and pharmacodynamics of an innovative psychedelic N,N-dimethyltryptamine/harmine formulation in healthy participants: a randomized controlled trial” (International Journal of Neuropsychopharmacology, 2025).

Experiments:
healthy male volunteers [1] = experiment: Acute subjective drug effects, visual analog scales (VAS 0–100); assay type: in vivo, human; conditions: for subjective ratings of acute drug effects compared to placebo: 100 mg buccal harmine alone vs placebo
Method: The detailed dosing scheme is depicted in Figure 1.
The intensity of acute subjective effects was monitored with visual analog scales (VASs, range 0–100) on a touchscreen tablet throughout the study day at baseline (−90), 0, 30, 60, 90, 120, 180, 240, and 300 after the first DMT/placebo administration. At 360 minutes after the first DMT/placebo administration, a phenomenological interview was conducted with participants to further explore acute subjective drug effects. For PK-PD analyses, we included VAS for intensity, liking, disliking, and arousal in the present paper. Further analyses on a set of neurophysiological, psychometric, and phenomenological assessments will be presented in forthcoming manuscripts.

healthy male volunteers [2] = experiment: Undesired drug effects / adverse events questionnaire (y/n and VAS 0–100); assay type: in vivo, human
Method: The participants were monitored with regard to AEs throughout the experiment by the study physician, including questionnaire-based assessments (VAS, 0-100 or y/n) of physical and mental discomfort, breathing difficulties, racing heartbeat, chest or abdominal pains, unpleasant body sensations/muscle pain, headache, nausea, vomiting, and fainting at baseline (−105), 0, 30, 60, 120, 240, and 300 minutes after DMT/placebo administration. Vital signs (systolic/diastolic blood pressure [DBP], heart rate, body temperature [BT]) were assessed using a semiautomatic blood pressure and oral temperature recording device throughout the study at baseline (−45), 0, 30, 120, 150, 210, and 270 minutes after the first DMT/placebo administration.

[3] = 0 min after first intranasal DMT/placebo administration
[4] = 60 min after first intranasal DMT/placebo administration
[5] = 120 min after first intranasal DMT/placebo administration
[6] = 180 min after first intranasal DMT/placebo administration

Compound: COc1ccc2c(c1)[nH]c1c(C)nccc12 [Harmine, harmine]
- subjective ratings of acute drug effects compared to placebo (healthy male volunteers [1]): no statistical differences
- subjective ratings of acute drug effects compared to placebo (healthy male volunteers [1]; listed as HAR): no significant difference
- effect size, intensity ratings, contrast vs PLA (healthy male volunteers [1]; at 90 minutes (max. intensity ratings)): 0.133
- effect size, intensity ratings, contrast vs PLA (healthy male volunteers [1]; at 240 minutes): 0.127
- peak effects of arousal, VAS (healthy male volunteers [1]; mean (SD)): 9.9 % of the maximal possible scor
- peak effects of disliking, VAS (healthy male volunteers [1]; mean (SD)): 7.8 % of the maximal possible scor
- peak effects of liking, VAS (healthy male volunteers [1]; mean (SD)): 20.0 % of the maximal possible scor
- peak intensity, VAS (healthy male volunteers [1]; mean (SD)): 7.6 % of the maximal possible scor
- Breathing difficulty, mean intensity [0–100] (SD) (healthy male volunteers [2]; [3]): 18 (25)
- Breathing difficulty, number of participants reporting (healthy male volunteers [2]; [3]): 3
- Chest pain, mean intensity [0–100] (SD) (healthy male volunteers [2]; [3]): 24 (32)
- Chest pain, number of participants reporting (healthy male volunteers [2]; [3]): 2
- Fainting, mean intensity [0–100] (SD) (healthy male volunteers [2]; [3]): 0 (0)
- Fainting, number of participants reporting (healthy male volunteers [2]; [3]): 0
- Head ache, mean intensity [0–100] (SD) (healthy male volunteers [2]; [3]): 3 (0)
- Head ache, number of participants reporting (healthy male volunteers [2]; [3]): 1
- Heart racing, mean intensity [0–100] (SD) (healthy male volunteers [2]; [3]): 28 (35)
- Heart racing, number of participants reporting (healthy male volunteers [2]; [3]): 2
- Muscle ache, mean intensity [0–100] (SD) (healthy male volunteers [2]; [3]): 9 (7)
- Muscle ache, number of participants reporting (healthy male volunteers [2]; [3]): 6
- Nausea, mean intensity [0–100] (SD) (healthy male volunteers [2]; [3]): 2 (0)
- Nausea, number of participants reporting (healthy male volunteers [2]; [3]): 1
- Psychological distress, mean intensity [0–100] (SD) (healthy male volunteers [2]; [3]): 6 (2)
- Psychological distress, number of participants reporting (healthy male volunteers [2]; [3]): 3
- Somatic distress, mean intensity [0–100] (SD) (healthy male volunteers [2]; [3]): 18 (14)
- Somatic distress, number of participants reporting (healthy male volunteers [2]; [3]): 5
- Stomach ache, mean intensity [0–100] (SD) (healthy male volunteers [2]; [3]): 2 (0)
- Stomach ache, number of participants reporting (healthy male volunteers [2]; [3]): 1
- Vomiting, mean intensity [0–100] (SD) (healthy male volunteers [2]; [3]): 0 (0)
- Vomiting, number of participants reporting (healthy male volunteers [2]; [3]): 0
- Breathing difficulty, mean intensity [0–100] (SD) (healthy male volunteers [2]; [4]): 21 (28)
- Breathing difficulty, number of participants reporting (healthy male volunteers [2]; [4]): 2
- Chest pain, mean intensity [0–100] (SD) (healthy male volunteers [2]; [4]): 13 (8)
- Chest pain, number of participants reporting (healthy male volunteers [2]; [4]): 2
- Fainting, mean intensity [0–100] (SD) (healthy male volunteers [2]; [4]): 0 (0)
- Fainting, number of participants reporting (healthy male volunteers [2]; [4]): 0
- Head ache, mean intensity [0–100] (SD) (healthy male volunteers [2]; [4]): 34 (47)
- Head ache, number of participants reporting (healthy male volunteers [2]; [4]): 2
- Heart racing, mean intensity [0–100] (SD) (healthy male volunteers [2]; [4]): 9 (0)
- Heart racing, number of participants reporting (healthy male volunteers [2]; [4]): 1
- Muscle ache, mean intensity [0–100] (SD) (healthy male volunteers [2]; [4]): 22 (0)
- Muscle ache, number of participants reporting (healthy male volunteers [2]; [4]): 2
- Nausea, mean intensity [0–100] (SD) (healthy male volunteers [2]; [4]): 11 (10)
- Nausea, number of participants reporting (healthy male volunteers [2]; [4]): 3
- Psychological distress, mean intensity [0–100] (SD) (healthy male volunteers [2]; [4]): 8 (8)
- Psychological distress, number of participants reporting (healthy male volunteers [2]; [4]): 2
- Somatic distress, mean intensity [0–100] (SD) (healthy male volunteers [2]; [4]): 9 (5)
- Somatic distress, number of participants reporting (healthy male volunteers [2]; [4]): 5
- Stomach ache, mean intensity [0–100] (SD) (healthy male volunteers [2]; [4]): 52 (0)
- Stomach ache, number of participants reporting (healthy male volunteers [2]; [4]): 1
- Vomiting, mean intensity [0–100] (SD) (healthy male volunteers [2]; [4]): 0 (0)
- Vomiting, number of participants reporting (healthy male volunteers [2]; [4]): 0
- Breathing difficulty, mean intensity [0–100] (SD) (healthy male volunteers [2]; [5]): 7 (8)
- Breathing difficulty, number of participants reporting (healthy male volunteers [2]; [5]): 3
- Chest pain, mean intensity [0–100] (SD) (healthy male volunteers [2]; [5]): 4 (3)
- Chest pain, number of participants reporting (healthy male volunteers [2]; [5]): 3
- Fainting, mean intensity [0–100] (SD) (healthy male volunteers [2]; [5]): 0 (0)
- Fainting, number of participants reporting (healthy male volunteers [2]; [5]): 0
- Head ache, mean intensity [0–100] (SD) (healthy male volunteers [2]; [5]): 11 (0)
- Head ache, number of participants reporting (healthy male volunteers [2]; [5]): 1
- Heart racing, mean intensity [0–100] (SD) (healthy male volunteers [2]; [5]): 5 (5)
- Heart racing, number of participants reporting (healthy male volunteers [2]; [5]): 3
- Muscle ache, mean intensity [0–100] (SD) (healthy male volunteers [2]; [5]): 10 (9)
- Muscle ache, number of participants reporting (healthy male volunteers [2]; [5]): 3
- Nausea, mean intensity [0–100] (SD) (healthy male volunteers [2]; [5]): 15 (0)
- Nausea, number of participants reporting (healthy male volunteers [2]; [5]): 1
- Psychological distress, mean intensity [0–100] (SD) (healthy male volunteers [2]; [5]): 4 (5)
- Psychological distress, number of participants reporting (healthy male volunteers [2]; [5]): 2
- Somatic distress, mean intensity [0–100] (SD) (healthy male volunteers [2]; [5]): 7 (5)
- Somatic distress, number of participants reporting (healthy male volunteers [2]; [5]): 7
- Stomach ache, mean intensity [0–100] (SD) (healthy male volunteers [2]; [5]): 30 (37)
- Stomach ache, number of participants reporting (healthy male volunteers [2]; [5]): 2
- Vomiting, mean intensity [0–100] (SD) (healthy male volunteers [2]; [5]): 0 (0)
- Vomiting, number of participants reporting (healthy male volunteers [2]; [5]): 0
- Breathing difficulty, mean intensity [0–100] (SD) (healthy male volunteers [2]; [6]): 0 (0)
- Breathing difficulty, number of participants reporting (healthy male volunteers [2]; [6]): 0
- Chest pain, mean intensity [0–100] (SD) (healthy male volunteers [2]; [6]): 0 (0)
- Chest pain, number of participants reporting (healthy male volunteers [2]; [6]): 0
- Fainting, mean intensity [0–100] (SD) (healthy male volunteers [2]; [6]): 0 (0)
- Fainting, number of participants reporting (healthy male volunteers [2]; [6]): 0
- Head ache, mean intensity [0–100] (SD) (healthy male volunteers [2]; [6]): 72 (0)
- Head ache, number of participants reporting (healthy male volunteers [2]; [6]): 1
